Measured values from patent publication US20130046257A1, “METHODS OF USING AGENTS THAT MODULATE CLAUDIN EXPRESSION” (priority 2010, published 2013).

Tests used:
[1] = tested on: human cultured keratinocytes and reconstructed human epidermis; details: Kurasawa et al. 2009; cited from earlier work
human epidermis sheet = assay: TEER of human epidermal sheets treated with sodium decanoate; type: cell-based; details: 1 mM, T0
Excerpt: Epidermal sheets were obtained from discarded human skin using a weck blade (0.08 inch). Epidermal samples were mounted in an adapted snap-well system (Pierro et al., “Zonula Occludens Toxin Structure-Function Analysis, Identification of the Fragment Biologically Active on Tight Junctions and of the Zonulin Receptor Binding Domain,” J. Biol.

CLDN1 mRNA = assay: qPCR of CLDN1 in PHK treated with ciglitazone; type: cell-based, human; details: CIG 5 μM, 24 h, PHK in high Calcium media (DMEM)
Protocol: (§1) PHK were differentiated in high Calcium media (DMEM) in the presence of CIG 5 μM in DMSO or media with equivalent amount of DMSO alone, for 24 h. Total RNA was extracted from PHK using the QlAshredder spin column (Qiagen) and RNeasy RNA isolation kits (Qiagen). The quality of total RNA samples (RNA Integrity Number, RIN) was assessed using an Agilent 2100 Bioanalyzer (Agilent Technologies, Palo Alto, Calif.).
(§2) qPCR was performed using the iScript™ cDNA Synthesis kit and iQ™ SYBER Green Supermix assay system (Bio-Rad Laboratories). All PCR amplifications were carried out in triplicate on an iQ5 Multicolor real-time PCR detection system (Bio-Rad). Primers were designed and synthesized by Integrated DNA Technologies. Relative gene expression was calculated by using the 2^−ΔΔCt method, as previously described. The normalized Ct value of each sample was calculated using GAPDH as an endogenous control gene.

occludin mRNA = assay: qPCR of occludin in PHK treated with ciglitazone; type: cell-based, human; details: CIG 5 μM, 24 h, PHK in high Calcium media (DMEM)
Protocol: as §1, §2

[2] = tested on: CLDN1, occludin, ZO-1 and CLDN23; assay: Western blot of TJ proteins in PHK treated with PGN or TLR2 ligands; type: cell-based, human; details: 48 hr; PGN 0.2-20 μg/ml, Pam3CSK4 0.1-20 μg/ml, MALP2 10-1000 ng/ml
Protocol: PHFK were treated with PGN (0, 0.2, 2, 20 μg/ml) (as shown in FIG. 21A), Pam3CSK4 (0, 0.1, 1, 20 μg/ml) (as shown in FIG. 21B), MALP2 (0, 10, 100, 1000 ng/ml) for 48 hr and CLDN1 (as shown in FIG. 21C), occludin, ZO-1 and CLDN23 protein levels were detected from whole cell lysates by Western blot. Quantitative protein expression was determined by densitometry of bands and normalization to the housekeeping protein ([…]). (Representative blot of n=2-3 experiments).

[3] = tested on: primary human keratinocytes (PHK); assay: Trans Epithelial Electric Resistance (TEER) of PHK; type: cell-based
Protocol: Human keratinocytes were isolated from neonatal foreskin. Poumay et al., “Basal Detachment of the Epidermis Using Dispase: Tissue Spatial Organization and Fate of Integrin Alpha 6 Beta 4 and Hemidesmosomes,” J. Invest. Dermatol. 102:111-7 (1994), which is hereby incorporated by reference in its entirety. PHK were cultured in Keratinocyte-SFM (Invitrogen/Gibco) with 1% Pen/Strep, 0.2% Amphotericin B (Invitrogen/Gibco). To differentiate PHK, cells were grown in DMEM (Invitrogen/Gibco) with 10% heat-inactivated fetal bovine serum (Invitrogen/Gibco) and 1% Pen/Strep, 0.2% Amphotericin B (Invitrogen/Gibco). For TJ modulation experiments, the following cytokines were added alone or in combination to the differentiation media; human IL-4 (50 ng/ml; R&D system) and IL-13 (50 ng/ml; R&D system).
PHK were plated at a subconfluent density of 2.5−3×10^4 cells/filter in Transwell insert and cultured in Keratinocyte-SFM media until confluent. TEER was measured using an EVOMX voltohmmeter (World Precision Instruments, Sarasota, Fla.). The resistance of cell-free filters was subtracted from each experimental value.
PHK were plated on glass coverslips at 2-3×10^5 cells/well in a 6-well plate or at 2-3×10^4 cells/filter in Transwell insert (Costar; PET membrane, 0.4 μm pore size, 6.5 mm insert) in Keratinocyte-SFM without antibiotics. The next day after plating, cells were transfected with claudin-1 specific or control (scrambled) siRNAs (Santa Cruz) using Lipofectamine™ 2000 transfection Reagent (Invitrogen). TEER and permeability experiments were conducted 48 hours after PHK were switched to differentiation media.
TEER was measured in PHK as described above. PHK were stimulated with S. aureus-derived peptidoglycan (PGN, 0.2-20 μg/ml, n=3-7) (FIG. 19A), Malp-2 (10-1000 ng/ml, n=3) (FIG. 19B), and Pam3CSK4 a TLR1/2 ligand (0.01-20 μg/ml, n=3-6) (FIG. 19C). Data are presented by analyzing the area under the TEER curve and normalized to the mean values for the control group (media alone)*p<0.05; **p<0.01.

occludin and ZO-1 = assay: Expression of occludin and ZO-1 in PHK differentiated with Th2 cytokines; type: cell-based, human; details: PHK differentiated with cytokine
Protocol: (§3) Human keratinocytes were isolated from neonatal foreskin. Poumay et al., “Basal Detachment of the Epidermis Using Dispase: Tissue Spatial Organization and Fate of Integrin Alpha 6 Beta 4 and Hemidesmosomes,” J. Invest. Dermatol. 102:111-7 (1994), which is hereby incorporated by reference in its entirety. PHK were cultured in Keratinocyte-SFM (Invitrogen/Gibco) with 1% Pen/Strep, 0.2% Amphotericin B (Invitrogen/Gibco). To differentiate PHK, cells were grown in DMEM (Invitrogen/Gibco) with 10% heat-inactivated fetal bovine serum (Invitrogen/Gibco) and 1% Pen/Strep, 0.2% Amphotericin B (Invitrogen/Gibco). For TJ modulation experiments, the following cytokines were added alone or in combination to the differentiation media; human IL-4 (50 ng/ml; R&D system) and IL-13 (50 ng/ml; R&D system). […]
(§4) Previous studies have shown that claudin-1 expression in noncutaneous epithelial cells can be modulated by cytokines and growth factors. […] To test this possibility, PHK were differentiated in the presence or absence of Th2 cytokines, IL-4 and IL-13, and the expression of claudin-1, occludin and ZO-1 was evaluated. […]

claudin-1 = assay: Western blot of claudin-1 in PHK differentiated with Th2 cytokines; type: cell-based, human; details: 48 hours, 50 ng/ml, n=3
Protocol: as §3, §4

claudin-1, sequence (O95832 whole entry): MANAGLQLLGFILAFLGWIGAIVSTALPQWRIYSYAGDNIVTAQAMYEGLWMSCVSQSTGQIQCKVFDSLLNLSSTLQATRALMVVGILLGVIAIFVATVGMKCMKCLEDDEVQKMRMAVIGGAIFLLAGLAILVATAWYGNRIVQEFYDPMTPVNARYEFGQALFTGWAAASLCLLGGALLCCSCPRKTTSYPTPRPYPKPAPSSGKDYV

CCCCCCCCCC(=O)[O-].[Na+] [sodium decanoate]
paracellular permeability [1]: increased paracellular permeability | transepithelial electrical resistance [1]: decreased transepithelial electrical resistance | TEER, dmem + SC_1 (human epidermis sheet): 1.00 | TEER, dmem + SC_2 (human epidermis sheet): 1.00 | TEER, mean SC (human epidermis sheet): 1.00

CC1(COc2ccc(CC3SC(=O)NC3=O)cc2)CCCCC1 (stereo not shown) [ciglitazone]
CLDN1 mRNA, fold over DMSO alone (CLDN1 mRNA): 1.7 fold | occludin mRNA, fold (occludin mRNA): 2.0 fold | occludin mRNA, fold (occludin mRNA; listed as CIG): 2 fold

Malp-2 [reference compound]
TJ protein expressions [2]: increase TJ protein expressions | tight junction function (area under the TEER curve normalized to media alone) ([3]; PGN 0.2-20 μg/ml, Malp-2 10-1000 ng/ml, Pam3CSK4 0.01-20 μg/ml): increase tight junction function

Pam3CSK4
TJ protein expressions [2]: increase TJ protein expressions

IL-13: IL-13 (R&D system), Th2 cytokine
effect on expression of occludin and ZO-1 (occludin and ZO-1): no effect | claudin-1 expression, fold over control (claudin-1): 1.6±0.3 fold | effect on TEER in dose response experiments ([3]; 0.5-100 ng/ml, PHK): slight increase in TEER

B1: IL-4: human IL-4 (R&D system), Th2 cytokine (protein, UniProt P05112 25-153, looked up)
Interleukin-4: HKCDITLQEIIKTLNSLTEQKTLCTELTVTDIFAASKNTTEKETFCRAATVLRQFYSHHEKDTRCLGATAQQFHRHKQLIRFLKRLDRNLWGLAGLNSCPVKEANQSTLENFLERLKTIMREKYSKCSS
effect on expression of occludin and ZO-1 (occludin and ZO-1): no effect | claudin-1 expression, fold over control (claudin-1): 2.1±0.4 fold
